Data as given in EP1074545A1, “ISOQUINOLINESULFONAMIDE DERIVATIVES AND DRUGS CONTAINING THE SAME AS THE ACTIVE INGREDIENT” (Hidaka, Hiroyoshi, priority 1998, dated 1999).
Structures can show the parent of a compound that is named as a salt.

Test system: HIV-infected cells
Test: p24 protein production inhibiting effect (in vitro), quantitation of p24 protein by ELISA
Format: cell-based
Conditions: for content of p24 protein, Day 0: control 0; for content of p24 protein, Day 1: control 569542; for content of p24 protein, Day 5: control 902226
Description: p24 Protein Production Inhibiting Effect (in vitro)
Quantitation of p24 protein was conducted by ELISA.
HIV-infected cells were lysed in a lysis buffer, and were poured in predetermined constant aliquots into the individual wells of a 96-well microplate. Subsequent to adsorption of an antigen, a solution of a biotinylated anti-p24 monoclonal antibody was added. A streptavidin-labeled peroxidase was added, followed by the addition of a substrate for staining. One, three and five days later or 2 and 4 days later, a terminating solution was added to terminate the reaction. Concerning each of the wells, the absorbance at 450 nm was measured to determine the content of p24 protein in the well.

[1] = Table 5, compound at 1.60 µg/mℓ, control 349386
[2] = Table 5, compound at 1.60 µg/mℓ, control 435119

Cc1cncc2c(S(=O)(=O)N3CCCNCC3)cccc12 [Example 66, 1-(4-Methyl-8-isoquinolinesulfonyl)hexahydro-1H-1,4-diazepine]
content of p24 protein, Day 4 (Table 4, compound at 200 µg/mℓ, control 38991): 20897 pg/mL | content of p24 protein, Day 2 (Table 4, compound at 200 µg/mℓ, control 58304.5): 25557 pg/mL

CCCCCCCCCCCCCCCCCCOc1ncc(C)c2c(S(=O)(=O)N3CCCNCC3)cccc12 [Example 21, 1-(4-Methyl-1-n-octadecyloxy-5-isoquinolinesulfonyl)hexahydro-1H-1,4-diazepine]
content of p24 protein, Day 4 (Table 4, compound at 0.16 µg/mℓ, control 38991): 31250 pg/mL | content of p24 protein, Day 2 (Table 4, compound at 0.16 µg/mℓ, control 58304.5): 31250 pg/mL

CCCCCCOc1nccc2c(S(=O)(=O)N3CCCNCC3)cccc12 [Example 28, 1-(1-Hexyloxy-5-isoquinolinesulfonyl)hexahydro-1H-1,4-diazepine]
content of p24 protein, Day 4 [1]: 69877 pg/mL | content of p24 protein, Day 2 [2]: 156250 pg/mL

C=CCOc1ncc(C)c2c(S(=O)(=O)N3CCCNCC3)cccc12 [Example 46, 1-(1-Allyloxy-4-methyl-5-isoquinolinesulfonyl)hexahydro-1H-1,4-diazepine]
content of p24 protein, Day 4 (Table 5, compound at 8.00 µg/mℓ, control 349386): 156250 pg/mL | content of p24 protein, Day 2 (Table 5, compound at 8.00 µg/mℓ, control 435119): 233662 pg/mL

CNc1ncc(C)c2c(S(=O)(=O)N3CCCNCC3)cccc12 [Example 41, 1-(4-Methyl-1-N-methylamino-5-isoquinolinesulfonyl)hexahydro-1H-1,4-diazepine]
content of p24 protein, Day 0 (Table 2, compound at 0.8 µg/mℓ): 0 pg/m | content of p24 protein, Day 2 (Table 2, compound at 0.8 µg/mℓ, control 46732): 82082 pg/m | content of p24 protein, Day 4 (Table 2, compound at 0.8 µg/mℓ, control 104484): 66977 pg/m

CCCCCCOc1ncc(C)c2c(S(=O)(=O)N3CCCNCC3C)cccc12 (stereo not shown) [Example 53, 1-(1-n-Hexyloxy-4-methyl-5-isoquinolinesulfonyl)2-methylhexahydro-1H-1,4-diazepine]
content of p24 protein, Day 4 (Table 5, compound at 40.0 µg/mℓ, control 349386): 233662 pg/mL | content of p24 protein, Day 2 (Table 5, compound at 40.0 µg/mℓ, control 435119): 94822 pg/mL

CCCCCCCCOc1ncc(C)c2c(S(=O)(=O)N3CCCNCC3)cccc12 [Example 20, 1-(4-Methyl-1-n-octyloxy-5-isoquinolinesulfonyl)hexahydro-1H-1,4-diazepine]
content of p24 protein, Day 4 (Table 4, compound at 0.32 µg/mℓ, control 38991): 31250 pg/mL | content of p24 protein, Day 2 (Table 4, compound at 0.32 µg/mℓ, control 58304.5): 31250 pg/mL

Cc1cncc2cccc(S(=O)(=O)N3CCNCC3)c12 [Example 29, 1-(4-Methyl-5-isoquinolinesulfonyl)piperazine]
content of p24 protein, Day 0 (Table 2, compound at 0.32 µg/mℓ): 0 pg/m | content of p24 protein, Day 2 (Table 2, compound at 0.32 µg/mℓ, control 46732): 69877 pg/m | content of p24 protein, Day 4 (Table 2, compound at 0.32 µg/mℓ, control 104484): 69877 pg/m

Cc1cnc(OC(C)C)c2cccc(S(=O)(=O)N3CCCNCC3)c12 [Example 22, 1-(1-Isopropyloxy-4-methyl-5-isoquinolinesulfonyl)hexahydro-1H-1,4-diazepine]
content of p24 protein, Day 4 (Table 4, compound at 1.60 µg/mℓ, control 38991): 20897 pg/mL | content of p24 protein, Day 2 (Table 4, compound at 1.60 µg/mℓ, control 58304.5): 17405 pg/mL

CCCCC(CC)COc1ncc(C)c2c(S(=O)(=O)N3CCCNCC3)cccc12 (stereo not shown) [Example 25, 1-(1-(2-Ethyl)hexyloxy-4-methyl-5-isoquinolinesulfonyl)hexahydro-1H-1,4-diazepine]
content of p24 protein, Day 4 (Table 4, compound at 4.00 µg/mℓ, control 38991): 16416 pg/mL | content of p24 protein, Day 2 (Table 4, compound at 4.00 µg/mℓ, control 58304.5): 25557 pg/mL

O=S(=O)(c1cccc2cncc(F)c12)N1CCCNCC1 [Example 55, 1-(4-Fluoro-5-isoquinolinesulfonyl)hexahydro-1H-1,4-diazepine]
content of p24 protein, Day 4 (Table 3, compound at 4 µg/mℓ, control 82079): 59487 pg/mL | content of p24 protein, Day 2 (Table 3, compound at 4 µg/mℓ, control 104484): 59487 pg/mL

Cc1cnc(OCc2c(F)c(F)c(F)c(F)c2F)c2cccc(S(=O)(=O)N3CCCNCC3)c12 [Example 48, 1-(4-Methyl-1-pentafluorophenylmethyloxy-5-isoquinolinesulfonyl)hexahydro-1H-1,4-diazepine]
content of p24 protein, Day 4 [1]: 297434 pg/mL | content of p24 protein, Day 2 [2]: 82082 pg/mL

O=S(=O)(c1cccc2c(O)nccc12)N1CCCNCC1 [Example 6, 1-(1-Hydroxy-5-isoquinolinesulfonyl)hexahydro-1H-1,4-diazepine·monohydrochloride]
content of p24 protein, Day 1 (Table 1, compound at 20 µg/m): 551489 pg/mL | content of p24 protein, Day 2 (Table 1, compound at 20 µg/m, control 881594): 645621 pg/mL | content of p24 protein, Day 5 (Table 1, compound at 20 µg/m): 698489 pg/mL

CCCCCCOc1ncc(C)c2c(S(=O)(=O)N3CCCNCC3)cccc12 [Example 14, 1-(1-n-Hexyloxy-4-methyl-5-isoquinolinesulfonyl)hexahydro-1H-1,4-diazepine]
content of p24 protein, Day 0 (Table 2, compound at 8 µg/mℓ): 0 pg/m | content of p24 protein, Day 2 (Table 2, compound at 8 µg/mℓ, control 46732): 1022 pg/m | content of p24 protein, Day 4 (Table 2, compound at 8 µg/mℓ, control 104484): 0 pg/m

Cc1cnc(O)c2cccc(S(=O)(=O)N3CCCNCC3C)c12 (stereo not shown) [Example 51, 1-(1-Hydroxy-4-methyl-5-isoquinolinesulfonyl)2-methylhexahydro-1H-1,4-diazepine·monohydrochloride]
content of p24 protein, Day 1 (Table 1, compound at 10 µg/m): 641752 pg/mL | content of p24 protein, Day 2 (Table 1, compound at 10 µg/m, control 881594): 624989 pg/mL | content of p24 protein, Day 5 (Table 1, compound at 10 µg/m): 566963 pg/mL

Cc1cnc(O)c2cccc(S(=O)(=O)N3CCCNC(C)C3)c12 (stereo not shown) [Example 36, 1-(1-Hydroxy-4-methyl-5-isoquinolinesulfonyl)-3-methylhexahydro-1H-1,4-diazepine·monohydrochloride]
content of p24 protein, Day 4 (Table 5, compound at 3.20 µg/mℓ, control 349386): 82082 pg/mL | content of p24 protein, Day 2 (Table 5, compound at 3.20 µg/mℓ, control 435119): 104484 pg/mL
